Assays:
Assay type in all cases: in vivo
[1] = tested on: Alopecurus myosuroides (ALOMY); experiment: Pre-emergence biological efficacy, glasshouse pot test; details: 312 h, pre-emergence, 1,000 g/ha, evaluated after 13 days (100=total damage; 0=no damage), read-out: Percentage damage ALOMY
Procedure, shortened: (§1)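 One day after seeds were sown in pots, compound was sprayed at 1000 or 250 g/ha. Plants were kept at 24/16 °C with 14 h light and 65% humidity and watered twice daily; damage was graded at day 13 (0 none, 100 total).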

[2] = tested on: Amaranthus retoflexus (AMARE); experiment: as above; details: Amaranthus retroflexus, 312 h; pre-emergence, 1,000 g/ha, evaluated after 13 days (100=total damage; 0=no damage); read-out: Percentage damage AMARE
Procedure, shortened: as §1

[3] = tested on: Echinochloa crus-galli (ECHCG); experiment: as above; details: 312 h, pre-emergence, 1,000 g/ha, evaluated after 13 days (100=total damage; 0=no damage), read-out: Percentage damage ECHCG
Procedure, shortened: as §1

[4] = tested on: Ipomea hederaceae (IPOHE); experiment: as above; details: Ipomoea hederacea, 312 h; pre-emergence, 1,000 g/ha, evaluated after 13 days (100=total damage; 0=no damage); read-out: Percentage damage IPOHE
Procedure, shortened: as §1

Setaria faberi (SETFA) [5] = experiment: as above; details: 312 h, pre-emergence, 1,000 g/ha, evaluated after 13 days (100=total damage; 0=no damage), read-out: Percentage damage SETFA
Procedure, shortened: as §1

Solanum nigrum (SOLNI) [6] = experiment: as above; details: 312 h, pre-emergence, 1,000 g/ha, evaluated after 13 days (100=total damage; 0=no damage), read-out: Percentage damage SOLNI
Procedure, shortened: as §1

[7] = tested on: Alopecurus myosuroides (ALOMY); experiment: Post-emergence biological efficacy, glasshouse pot test; details: 312 h, post-emergence, 1,000 g/ha, evaluated after 13 days (100=total damage; 0=no damage), read-out: Percentage damage caused to weed species, ALOMY
Procedure, shortened: (§2)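 Plants were sown in standard soil and grown 8 days in a glasshouse (24/16° C. day/night, 14 hours light, 65% humidity), then sprayed post-emergence at 1000 or 250 g/ha from acetone/water (50:50) with 0.5% Tween 20. Damage was scored visually after 13 days (0 = none, 100 = total).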

[8] = tested on: Amaranthus retoflexus (AMARE); experiment: as above; details: Amaranthus retroflexus, 312 h; post-emergence, 1,000 g/ha, evaluated after 13 days (100=total damage; 0=no damage); read-out: Percentage damage caused to weed species, AMARE
Procedure, shortened: as §2

[9] = tested on: Echinochloa crus-galli (ECHCG); experiment: as above; details: 312 h, post-emergence, 1,000 g/ha, evaluated after 13 days (100=total damage; 0=no damage), read-out: Percentage damage caused to weed species, ECHCG
Procedure, shortened: as §2

[10] = tested on: Ipomea hederaceae (IPOHE); experiment: as above; details: Ipomoea hederacea, 312 h; post-emergence, 1,000 g/ha, evaluated after 13 days (100=total damage; 0=no damage); read-out: Percentage damage caused to weed species, IPOHE
Procedure, shortened: as §2

Setaria faberi (SETFA) [11] = experiment: as above; details: 312 h, post-emergence, 1,000 g/ha, evaluated after 13 days (100=total damage; 0=no damage), read-out: Percentage damage caused to weed species, SETFA
Procedure, shortened: as §2

Solanum nigrum (SOLNI) [12] = experiment: as above; details: 312 h, post-emergence, 1,000 g/ha, evaluated after 13 days (100=total damage; 0=no damage), read-out: Percentage damage caused to weed species, SOLNI
Procedure, shortened: as §2

| SMILES | pest or weed control at 1000 g/ha [1] [%] | pest or weed control at 1000 g/ha [2] [%] | pest or weed control at 1000 g/ha [3] [%] | pest or weed control at 1000 g/ha [4] [%] | pest or weed control at 1000 g/ha (Setaria faberi (SETFA) [5]) [%] | pest or weed control at 1000 g/ha (Solanum nigrum (SOLNI) [6]) [%] | pest or weed control at 1000 g/ha [7] [%] | pest or weed control at 1000 g/ha [8] [%] | pest or weed control at 1000 g/ha [9] [%] | pest or weed control at 1000 g/ha [10] [%] | pest or weed control at 1000 g/ha (Setaria faberi (SETFA) [11]) [%] | pest or weed control at 1000 g/ha (Solanum nigrum (SOLNI) [12]) [%] |
| --- | --- | --- | --- | --- | --- | --- | --- | --- | --- | --- | --- | --- |
| C=CCC(Nc1nc(C2CC2)nc(C(=O)OC)c1Cl)c1ccc(Cl)cc1 (stereo not drawn) [Compound 4-198, 5-Chloro-4-[1-(4-chlorophenyl)but-3-en-1-yl-amino]-2-cyclopropyl-6-methoxycarbonyl-pyrimidine] | 0 | 30 | 0 | 70 | 0 | 20 | 20 | 40 | 0 | 60 | 40 | 30 |
| C=CCC(Nc1nc(C2CC2)nc(C(=O)OC)c1Cl)c1ccccn1 (stereo not drawn) [Compound 4-199, 5-Chloro-2-cyclopropyl-6-methoxycarbonyl-4-[1-(pyrid-2-yl)-but-3-enylamino]-pyrimidine] | 0 | 0 | 0 | 40 | 0 | 0 | 0 | 50 | 0 | 80 | 0 | 60 |
| COC(=O)c1nc(C2CC2)nc(NC(c2ccc(Cl)cc2)C2CC2)c1Cl (stereo not drawn) [Compound 4-200, 5-Chloro-4-[1-(4-chlorophenyl)-1-(cyclopropyl)methyl-amino]-2-cyclopropyl-6-methoxycarbonyl-pyrimidine] | 0 | 20 | 0 | 50 | 0 | 0 | 20 | 100 | 20 | 90 | 40 | 80 |
| COC(=O)c1nc(C2CC2)nc(NC(CO)C2CCOC2)c1Cl (stereo not drawn) [Compound 4-201, 5-Chloro-2-cyclopropyl-4-(2-hydroxy-1-tetrahydrofuran-3-yl-ethylamino)-6-methoxycarbonyl-pyrimidine] | 0 | 100 | 20 | 100 | 10 | 100 | 10 | 100 | 10 | 60 | 20 | 90 |
| COC(=O)c1nc(C2CC2)nc(NC(CO)C2CCOCC2)c1Cl (stereo not drawn) [Compound 4-202, 5-Chloro-2-cyclopropyl-4-(2-hydroxy-1-tetrahydropyran-4-yl-ethylamino)-6-methoxycarbonyl-pyrimidine] | 20 | 60 | 30 | 100 | 30 | 70 | 10 | 100 | 0 | 50 | 30 | 80 |
| COC(=O)c1nc(C2CC2)nc(NC(CO)c2ccccc2)c1Cl (stereo not drawn) [Compound 4-203, 5-Chloro-2-cyclopropyl-4-(2-hydroxy-1-phenyl-ethylamino)-6-methoxycarbonyl-pyrimidine] | 30 | 100 | 60 | 100 | 60 | 80 | 40 | 100 | 30 | 50 | 40 | 80 |
| COC(=O)c1nc(C2CC2)nc(NC(CS(C)(=O)=O)c2ccc(OC)cc2)c1Cl (stereo not drawn) [Compound 4-205, 5-Chloro-2-cyclopropyl-6-methoxycarbonyl-4-[1-(4-methoxy-phenyl)-2-methylsulphonyl-ethylamino]-pyrimidine] | 0 | 0 | 0 | 0 | 0 | 0 | 0 | 20 | 0 | 20 | 0 | 10 |
| COC(=O)c1nc(C2CC2)nc(NC(C(=O)OC)c2ccccc2)c1Cl (stereo not drawn) [Compound 4-210, 5-Chloro-2-cyclopropyl-6-methoxycarbonyl-4-(1-methoxy-carbonyl-1-phenyl-methylamino)-pyrimidine] | 20 | 100 | 50 | 100 | 20 | 90 | 60 | 50 | 60 | 40 | 80 | 40 |
| CCOC(=O)C(Nc1nc(C2CC2)nc(C(=O)OC)c1Cl)c1ccccc1 (stereo not drawn) [Compound 4-214, 5-Chloro-2-cyclopropyl-4-[(1-ethoxycarbonyl-1-phenyl)-methyl-amino]-6-methoxy-carbonylpyrimidine] | 20 | 100 | 60 | 100 | 40 | 90 | 50 | 100 | 70 | 100 | 70 | 80 |
| COC(=O)c1nc(C2CC2)nc(NCCC2OCCO2)c1Cl [Compound 4-216, 5-Chloro-2-cyclopropyl-4-[2-(1,3-dioxolan-2-yl)ethylamino]-6-methoxycarbonyl-pyrimidine] | 30 | 100 | 40 | 100 | 40 | 90 | 20 | 100 | 20 | 80 | 60 | 70 |
| COC(=O)c1nc(C2CC2)nc(NCCN2CCNC2=O)c1Cl [Compound 4-219, 5-Chloro-2-cyclopropyl-6-methoxycarbonyl-4-[2-(2-oxo-imidazolidin-1-yl)ethylamino]-pyrimidine] | 0 | 60 | 0 | 90 | 0 | 30 | 0 | 50 | 0 | 50 | 10 | 50 |
